Data from patent publication US20120220664A1, “USE OF METFORMIN IN CANCER TREATMENT AND PREVENTION” (priority 2009, published 2012).

Columns and labels:
[1] = system: cancer stem cells (CD44high/CD24low) and cancer cells (CD44low/CD24high) of transformed MCF-10A or MCF-7 cells; settings: doxorubicin, 0.1 mM metformin, or both; FIG. 3A
[2] = system: MCF10A ER-Src xenograft tumors
[3] = system: cancer stem cells (CD44high/CD24low) from MCF10A-ER-Src tumors; settings: after 3 cycles of treatment (day 25); FIG. 4B
[4] = system: mammospheres derived from all four breast cancer cell lines (MCF10A ER-Src, MCF7, SKBR3, MDA-MB-468); assay: Mammosphere growth, 6-day old mammospheres (FIG. 2); type: cell-based, human; settings: 0.1 mM metformin, within 48 hours
[5] = system: sorted cancer stem cells and non-stem cancer cells of MCF10A ER-Src, MCF7, SKBR3 and MDA-MB-468; assay: Growth of sorted cancer stem cells and non-stem cancer cells (FIG. 3B); type: cell-based, human; settings: 0.1 mM metformin, 0, 24, 48 hours, all four cancer cell lines
[6] = system: MCF10A-ER-Src cancer stem cells; assay: Tumor formation in nude mice by metformin-pretreated cancer stem cells (FIG. 3C); type: in vivo; settings: cells treated with 0.1 mM metformin for 1 hour prior to injection, month after injection
[7] = system: non-transformed cells (MCF10A-ER-Src); assay: Growth of non-transformed MCF10A-ER-Src cells with metformin (FIG. 1A); type: cell-based, human; settings: 0.1 or 0.3 mM metformin, 24 hours
[8] = system: MCF10A-ER-Src cells; assay: Focus formation of TAM-treated MCF10A-ER-Src cells (FIG. 1B); type: cell-based, human
[9] = general statement; cited from earlier work
[10] = system: MCF10A ER-Src cells; assay: Wound healing motility / invasion assay; type: cell-based, human; settings: 0.1 mM metformin and/or TAM; data not shown
[11] = system: MCF10A ER-Src cells; assay: Morphological transformation of TAM-induced MCF10A ER-Src cells (phase-contrast); type: cell-based, human; settings: 0.1 mM metformin and/or TAM for 36 hours; data not shown
[12] = system: MCF10A ER-Src cells; assay: Colony formation assay in soft agar (FIG. 1B); type: cell-based, human; settings: TAM-treated cells
[13] = system: MCF10A-ER-Src cells; assay: Mammosphere formation (FIG. 1B); type: cell-based, human; settings: TAM-treated cells

Structure (SMILES)	killing of cancer stem cells versus cancer cells in the mixed transformed population [1]	decrease in tumor volume ([2]; after 15 days of treatment (3 cycles every 5 days, i.p.), 4 mg/kg doxorubicin)	time until tumor growth resumed after treatment ([2]; after treatment with doxorubicin alone, FIG. 4A)	rate of tumor growth after relapse ([2]; compared with absence of treatment)	tumor volume after an additional 10 days ([2]; day 35)	cancer stem cells in tumors [3]	number of mammospheres [4]	effect on tumors / tumor volume ([2]; after 15 days of treatment (3 cycles every 5 days, i.p.), 4 mg/kg doxorubicin, 100 μg/ml metformin, or both)	effect on sorted standard (non-stem) cancer cell population [5]	susceptibility of sorted cancer stem cells [5]	ability of cancer stem cells to form tumors in nude mice [6]	growth of non-transformed cells [7]	focus formation [8]	crossing of the blood brain barrier [9]	invasive growth in wound-healing assays [10]	morphological transformation [11]	formation of colonies in soft agar [12]	generation of mammospheres [13]
COc1cccc2c1C(=O)c1c(O)c3c(c(O)c1C2=O)C[C@@](O)(C(=O)CO)C[C@@H]3O[C@H]1C[C@H](N)[C@H](O)[C@H](C)O1 [doxorubicin]	kills cancer cells, but not cancer stem cells	2 fold	20 days	comparable to that observed in the initial disease	further reduction in tumor volume	easily detected												
CN(C)C(=N)N=C(N)N [metformin]	preferentially killed cancer stem cells						dramatic reduction in the number of mammospheres	little effect	essentially unaffected	quite susceptible	blocked the ability of these cells to form tumors	does not affect the growth of non-transformed cells	strongly inhibited	can cross the blood brain barrier	strongly inhibited	strongly inhibited	strongly inhibited	strongly inhibited
